These results are taken from ChEMBL document CHEMBL3526087, “Inhibition of human sterol Δ7-reductase and other postlanosterol enzymes by LK-980, a novel inhibitor of cholesterol synthesis” (Drug Metab Dispos, 2011).

In data set [1] the target is T1, 3-hydroxy-3-methylglutaryl-coenzyme A reductase (Homo sapiens) (UniProt P04035).
T1 sequence (whole entry): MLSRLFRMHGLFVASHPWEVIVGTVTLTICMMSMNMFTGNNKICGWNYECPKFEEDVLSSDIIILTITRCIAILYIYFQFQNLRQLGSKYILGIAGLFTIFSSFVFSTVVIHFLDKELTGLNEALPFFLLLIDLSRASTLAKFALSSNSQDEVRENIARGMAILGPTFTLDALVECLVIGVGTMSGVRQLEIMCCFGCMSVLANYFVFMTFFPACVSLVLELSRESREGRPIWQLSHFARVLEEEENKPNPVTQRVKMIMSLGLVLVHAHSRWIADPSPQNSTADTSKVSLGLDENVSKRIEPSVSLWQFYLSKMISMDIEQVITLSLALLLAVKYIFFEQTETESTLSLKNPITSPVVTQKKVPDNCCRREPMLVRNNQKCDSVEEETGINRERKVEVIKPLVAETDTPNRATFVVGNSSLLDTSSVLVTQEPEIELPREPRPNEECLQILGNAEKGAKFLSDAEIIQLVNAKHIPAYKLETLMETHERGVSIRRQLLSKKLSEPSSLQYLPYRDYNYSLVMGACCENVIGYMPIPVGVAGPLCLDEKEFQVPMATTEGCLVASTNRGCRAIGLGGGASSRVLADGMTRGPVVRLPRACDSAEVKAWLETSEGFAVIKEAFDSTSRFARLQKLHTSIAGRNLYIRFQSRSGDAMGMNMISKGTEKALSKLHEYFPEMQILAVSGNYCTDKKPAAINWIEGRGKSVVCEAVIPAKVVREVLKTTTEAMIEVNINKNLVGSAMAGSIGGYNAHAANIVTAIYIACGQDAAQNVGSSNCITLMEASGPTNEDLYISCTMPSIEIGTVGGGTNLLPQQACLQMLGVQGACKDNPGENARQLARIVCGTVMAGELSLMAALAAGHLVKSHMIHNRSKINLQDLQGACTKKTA
Description: Inhibition of HMGCR activity in human hepatocytes assessed as increase in lathosterol level per gram of protein by GC-MS analysis (reference value: 47.7 ug). The class given is cell-based. Conditions: Hepatocyte.

Data set [2] has as its target T1, 3-hydroxy-3-methylglutaryl-coenzyme A reductase (Homo sapiens). The data set can be described thus: Inhibition of HMGCR activity in human hepatocytes assessed as increase in FF-MAS level per gram of protein by GC-MS analysis (reference value: 0.7 ug). The class given is cell-based. Conditions: Hepatocyte.
For data set [3] the target is unchanged. Description: Inhibition of HMGCR activity in human hepatocytes assessed as increase in desmosterol level per gram of protein by GC-MS analysis (reference value: 5.5 ug). The class given is cell-based. The note with it: Hepatocyte.
Data set [4] shares this target. Description: Inhibition of HMGCR activity in human hepatocytes assessed as increase in 7-dehydrocholesterol level per gram of protein by GC-MS analysis (reference value: 16.3 ug). The class given is cell-based. Conditions: Hepatocyte.
The target in data set [5] is T2, Delta(24)-sterol reductase (Homo sapiens) (UniProt Q15392).
T2 sequence (whole entry): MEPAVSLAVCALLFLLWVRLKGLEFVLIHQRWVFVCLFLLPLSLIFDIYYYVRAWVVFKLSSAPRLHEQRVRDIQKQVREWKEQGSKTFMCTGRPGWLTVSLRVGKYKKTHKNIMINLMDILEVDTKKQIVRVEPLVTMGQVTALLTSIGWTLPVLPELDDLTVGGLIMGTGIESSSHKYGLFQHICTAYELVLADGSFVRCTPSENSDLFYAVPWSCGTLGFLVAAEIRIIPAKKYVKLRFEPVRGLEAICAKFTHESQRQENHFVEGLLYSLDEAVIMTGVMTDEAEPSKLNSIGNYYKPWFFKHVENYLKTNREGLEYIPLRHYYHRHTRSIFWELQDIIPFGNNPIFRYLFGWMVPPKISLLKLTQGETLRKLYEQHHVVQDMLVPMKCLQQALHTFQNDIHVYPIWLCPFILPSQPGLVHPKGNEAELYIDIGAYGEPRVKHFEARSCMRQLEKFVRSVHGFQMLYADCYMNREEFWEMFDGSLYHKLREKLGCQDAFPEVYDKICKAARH
Description: Inhibition of DHCR24 activity in human hepatocytes assessed as increase in desmosterol level per gram of protein by GC-MS analysis (reference value: 5.5 ug). The class given is cell-based. Conditions: Hepatocyte.

Data set [6] has as its target T1, 3-hydroxy-3-methylglutaryl-coenzyme A reductase (Homo sapiens). The data set can be described thus: Inhibition of HMGCR activity in human hepatocytes assessed as mevalonate formed per mg of protein at 100 uM by GC-MS analysis (reference value: 69 9 pmol/min). The class given is cell-based. Conditions: Hepatocyte.
In data set [7] the test system is Hepatocyte. The data set can be described thus: Effect on CYP3A4 mRNA expression in human hepatocytes at 10 uM after 12 to 48 hrs by RT-PCR analysis. The class given is ADME, cell-based.
For data set [8], the target named is T3, Lathosterol oxidase (Homo sapiens) (UniProt O75845).
T3 sequence (whole entry): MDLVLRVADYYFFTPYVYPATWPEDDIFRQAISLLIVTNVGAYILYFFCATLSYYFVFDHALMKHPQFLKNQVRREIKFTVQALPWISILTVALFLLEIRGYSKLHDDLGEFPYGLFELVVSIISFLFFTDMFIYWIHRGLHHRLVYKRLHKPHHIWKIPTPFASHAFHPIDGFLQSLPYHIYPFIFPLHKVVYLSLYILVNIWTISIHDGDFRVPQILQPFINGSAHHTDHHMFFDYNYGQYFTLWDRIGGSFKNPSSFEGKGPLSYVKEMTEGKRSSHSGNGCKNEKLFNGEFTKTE
Description: Inhibition of SC5DL activity in human hepatocytes assessed as increase in lathosterol level per gram of protein by GC-MS analysis (reference value: 47.7 ug). Conditions: Hepatocyte. The class given is cell-based.

Data set [9] addresses Cytochrome P450 3A4 (Homo sapiens, UniProt P08684). The data set can be described thus: Effect on CYP3A4 in human hepatocytes assessed as nifedipine oxidation activity using nifedipine as substrate at 10 uM. The class given is ADME, cell-based, Hepatocyte.
Data set [10] deals with T4, 7-dehydrocholesterol reductase (Homo sapiens) (UniProt Q9UBM7).
T4 sequence (whole entry): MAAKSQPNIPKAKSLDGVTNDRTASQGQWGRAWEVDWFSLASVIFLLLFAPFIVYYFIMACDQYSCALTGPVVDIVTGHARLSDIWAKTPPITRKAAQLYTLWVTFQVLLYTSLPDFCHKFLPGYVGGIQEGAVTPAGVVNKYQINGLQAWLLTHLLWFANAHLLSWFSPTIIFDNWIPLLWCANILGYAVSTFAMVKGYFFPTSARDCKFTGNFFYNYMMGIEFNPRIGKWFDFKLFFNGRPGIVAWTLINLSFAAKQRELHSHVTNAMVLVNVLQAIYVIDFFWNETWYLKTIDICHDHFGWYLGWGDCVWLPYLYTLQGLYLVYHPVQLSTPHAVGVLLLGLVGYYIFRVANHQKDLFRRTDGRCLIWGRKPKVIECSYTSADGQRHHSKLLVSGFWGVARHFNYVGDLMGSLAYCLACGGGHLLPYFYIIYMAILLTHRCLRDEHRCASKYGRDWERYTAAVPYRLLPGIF
The data set can be described thus: Inhibition of DHCR7 activity in human hepatocytes assessed as increase in 7-dehydrocholesterol level per gram of protein by GC-MS analysis (reference value: 16.3 ug). The class given is cell-based. Conditions: Hepatocyte.

Data set [11] deals with T5, Delta(14)-sterol reductase TM7SF2 (Homo sapiens) (UniProt O76062).
T5 sequence (whole entry): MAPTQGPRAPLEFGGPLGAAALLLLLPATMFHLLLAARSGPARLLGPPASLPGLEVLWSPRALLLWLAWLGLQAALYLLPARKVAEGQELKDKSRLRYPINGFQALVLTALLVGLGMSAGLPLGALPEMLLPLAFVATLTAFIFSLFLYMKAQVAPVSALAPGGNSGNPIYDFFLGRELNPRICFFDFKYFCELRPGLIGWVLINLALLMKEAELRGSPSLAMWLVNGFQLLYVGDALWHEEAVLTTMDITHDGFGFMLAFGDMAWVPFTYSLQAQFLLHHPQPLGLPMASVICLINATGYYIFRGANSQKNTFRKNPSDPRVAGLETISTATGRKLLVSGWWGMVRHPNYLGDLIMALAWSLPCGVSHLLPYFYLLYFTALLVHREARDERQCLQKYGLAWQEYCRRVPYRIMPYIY
The data set can be described thus: Inhibition of DHCR14 activity in human hepatocytes assessed as increase in FF-MAS level per gram of protein by GC-MS analysis (reference value: 0.7 ug). Type of data set: cell-based. The note with it: Hepatocyte.

Sequence of Cytochrome P450 3A4 (P08684 whole entry): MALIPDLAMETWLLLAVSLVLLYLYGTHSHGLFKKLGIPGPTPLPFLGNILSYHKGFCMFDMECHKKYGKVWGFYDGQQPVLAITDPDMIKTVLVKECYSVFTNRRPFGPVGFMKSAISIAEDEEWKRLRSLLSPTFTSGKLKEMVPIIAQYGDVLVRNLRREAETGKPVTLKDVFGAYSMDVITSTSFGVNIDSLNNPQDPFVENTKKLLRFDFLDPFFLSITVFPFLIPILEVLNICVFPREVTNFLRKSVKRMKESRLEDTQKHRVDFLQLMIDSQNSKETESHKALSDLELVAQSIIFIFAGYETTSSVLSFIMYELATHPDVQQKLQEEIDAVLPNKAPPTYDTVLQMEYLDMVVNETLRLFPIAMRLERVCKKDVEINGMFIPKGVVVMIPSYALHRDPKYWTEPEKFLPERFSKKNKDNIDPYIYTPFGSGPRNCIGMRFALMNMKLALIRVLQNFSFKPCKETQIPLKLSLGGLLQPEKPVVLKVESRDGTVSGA

On to `CC(C)c1c(C(=O)Nc2ccccc2)c(-c2ccccc2)c(-c2ccc(F)cc2)n1CC[C@@H](O)C[C@@H](O)CC(=O)O`, for which the Activity in data set [1] worked out at 25.8 µg; in [2], 0.3 µg; in data set [3], 2.7 µg; in data set [4] it was 15.8 µg.

In the case of `OC(CN1CCN(CCc2ccccc2)CC1)c1cccnc1` (stereo unspecified), the Activity in [5] is 10.1 µg; in [6], 76 pmol/min; in data set [7], “Non-toxic”; in [8], 119 µg; in data set [9], “Non-toxic”; in data set [10], 556 µg. Also, the Activity in data set [11] is 2.9 µg.
